Experimental data from patent publication US11891386B2, “Indole compounds and their use” (ARIAGEN, INC., priority 2017, dated 2024).
Read-outs that look alike come from different tables or passages of the source.

Columns and labels:
[1] = Separate PK study in mice; format: in vivo; settings: data not shown
[2] = In vivo pharmacokinetic study in Sprague-Dawley rats; settings: rat; for bioavailability: Sprague-Dawley, plasma, po, 10 mg/kg, PO (10 mg/kg) vs IV (2 mg/kg), read-out: F % (bioavailability); for % of Hepatisc Blood Flow: IV (2 mg/kg)
Protocol: This example describes pharmacokinetic (PK) studies of the various indole compounds described herein in rats, a rodent species widely used for pre-clinical toxicology evaluation. In the present studies, the test compounds were given to groups of Sprague-Dawley rats (N=3 in each group) intravenously (IV) at 2 mg/kg or orally (PO) at 10 mg/kg. IV doses were formulated in DMSO, while PO doses were formulated in a 50/50 mixture of PEG400 and Tween 80. Blood samples were collected at pre-dose and over a period of 24 hours post-dose. Plasma concentrations of the indole compounds were determined by HPLC.

[3] = tested on: LL/2 syngeneic mouse tumor model (lung cancer); experiment: Anti-tumor activity, LL/2 syngeneic mouse tumor model; format: in vivo
Protocol: (§1) This example describes in vivo studies that evaluated the anti-cancer efficacy of the disclosed indole compounds in syngeneic mouse tumor models. Mice implanted subcutaneously with four types of cancer cells were treated with test indole compounds or vehicle controls as described below.
(§2) A monolayer culture of tumor cells was maintained in vitro in DMEM or RPMI1640 medium supplemented with 10% fetal bovine serum at 37° C. in an atmosphere of 5% CO2. Cells in exponential growth phase were harvested and quantitated by cell counter before tumor inoculation. The cell lines used are described in the table below.
(§3) Four subcutaneous syngeneic mouse tumor models were generated by innoculating female BALB/C or C57BL/6 mice with cancer cells at their right lower or front flank as detailed in the table below:
(§4) Each mouse was inoculated subcutaneously with tumor cells in 0.1 mL of PBS. Treatments were started when the mean tumor size reached approximately 80-120 mm^3 (around 100 mm^3). The administration of the indole compounds and the animal number in each study group are shown in the study design. The date of tumor cell inoculation was denoted as day 0.
(§5) The indole compounds were dissolved in DMSO at the final concentration of 26.7 mg/ml and stored at room temperature.
(§6) Randomization of animals was started when the mean tumor size reached approximately 90 mm^3 to form the mouse study groups. The randomization was performed based on “Matched distribution” method using the multi-task method (StudyDirector™ software, version 3.1.399.19)/randomized block design. The mouse groups (ten in each group) were treated with vehicle (DMSO) or the indole compounds at a dose of 40 mg/kg by i.p. injection, QD for 28 days or longer.
(§7) After tumor cell inoculation, the mice were checked daily for morbidity and mortality. During routine monitoring, the mice were checked for tumor growth and any effects of the treatment on behavior such as mobility, food and water consumption, body weight gain/loss (body weights were measured twice per week after randomization), eye/hair matting, and any other abnormalities. Mortality and observed clinical signs were recorded for individual mice in detail.
(§8) Tumor volumes were measured twice per week in two dimensions using a caliper, and the volume was expressed in mm^3 using the formula: V=(L×W×W)/2, where V is tumor volume, L is tumor length (the longest tumor dimension) and W is tumor width (the longest tumor dimension perpendicular to L). Dosing as well as tumor and body weight measurements was conducted in a Laminar Flow Cabinet. The body weights and tumor volumes were measured by using StudyDirector™ software (version 3.1.399.19). Dosing Holiday
(§9) Tumor growth inhibition percentage (TGI %) is an indicator for antitumor activity of a drug compound, and expressed as: TGI (%)=100×(1−T/C), where T and C are the mean tumor volume (or weight) of the treated and control groups, respectively, on a given day. […]
(§10) In Studies 1 and 3, the anti-tumor activity of ARI-001 in parallel with ARI-002 at 160 mg/kg (mpk), and the anti-tumor activity of ARI-087 in parallel with ARI-002 at 40 mpk were assessed using the EMT-6, Pan02, A20, and LL/2 models. […] In Study 5, the anti-tumor activity of ARI-087 was evaluated in parallel with ARI-143 and ARI-149 at 40 mpk. […]

[4] = tested on: A20 syngeneic mouse tumor model (B cell lymphoma); experiment: Anti-tumor activity, A20 syngeneic mouse tumor model; format: in vivo
Protocol: as §1, §2, §3, §4, §5, §6, §7, §8, §9, §10

[5] = tested on: EMT-6 syngeneic mouse tumor model (breast cancer); experiment: Anti-tumor activity, EMT-6 syngeneic mouse tumor model; format: in vivo; settings: for inhibition in vivo at 40 mg/kg: EMT6, ip
Protocol: as §1, §2, §3, §4, §5, §6, §7, §8
Tumor growth inhibition percentage (TGI %) is an indicator for antitumor activity of a drug compound, and expressed as: TGI (%)=100×(1−T/C), where T and C are the mean tumor volume (or weight) of the treated and control groups, respectively, on a given day. Statistical analysis of the difference in mean tumor volume (MTV) among the groups was conducted using the data collected on the day when the MTV of the vehicle group reached the humane endpoints, so that TGI could be derived for all or most mice enrolled in the study.
In Studies 1 and 3, the anti-tumor activity of ARI-001 in parallel with ARI-002 at 160 mg/kg (mpk), and the anti-tumor activity of ARI-087 in parallel with ARI-002 at 40 mpk were assessed using the EMT-6, Pan02, A20, and LL/2 models. Because EMT-6 provides a fast-growing model that enables relatively quick differentiation of performance between compounds, this syngeneic mouse tumor model was chosen for the other studies. In Study 2, the anti-tumor activity of ARI-002 was compared with that of ARI-004 at 10, 40, and 80 mpk. In Study 4, the anti-tumor activity of ARI-087 was compared with that of ARI-140. In Study 5, the anti-tumor activity of ARI-087 was evaluated in parallel with ARI-143 and ARI-149 at 40 mpk. […]

[6] = tested on: Pan02 syngeneic mouse tumor model (pancreatic cancer); experiment: Anti-tumor activity, Pan02 syngeneic mouse tumor model; format: in vivo
Protocol: as §1, §2, §3, §4, §5
Randomization of animals was started when the mean tumor size reached approximately 90 mm^3 to form the mouse study groups. […]
as §7
Tumor volumes were measured twice per week in two dimensions using a caliper, and the volume was expressed in mm^3 using the formula: V=(L×W×W)/2, where V is tumor volume, L is tumor length (the longest tumor dimension) and W is tumor width (the longest tumor dimension perpendicular to L). […] The body weights and tumor volumes were measured by using StudyDirector™ software (version 3.1.399.19). […]
as §9
In Studies 1 and 3, the anti-tumor activity of ARI-001 in parallel with ARI-002 at 160 mg/kg (mpk), and the anti-tumor activity of ARI-087 in parallel with ARI-002 at 40 mpk were assessed using the EMT-6, Pan02, A20, and LL/2 models. […]

[7] = tested on: EMT-6 syngeneic mouse tumor model (breast cancer); experiment: Anti-tumor activity, EMT-6 syngeneic mouse tumor model; format: in vivo; settings: EMT6, 648 h, Study 2, EMT-6, 160 mpk, D27, read-out: TGI (tumor growth inhibition)
[8] = tested on: hepatocytes; experiment: Metabolite analysis in hepatocytes by high-resolution mass spectrometry; format: in vitro ADME; settings: preliminary studies
Description: It remains unclear whether halogen substitutions at the indole ring impact the activity and metabolic profiles of the indole compounds described herein.

[9] = Study 3, A20, 40 mpk i.p. QD, D28
[10] = Mus musculus, 648 h, Study 3, EMT-6, 40 mpk i.p. QD, D27, read-out: TGI (tumor growth inhibition)
[11] = Study 3, Pan02, 40 mpk i.p. QD, D60

Cc1noc(-c2csc(C(=O)c3c[nH]c4ccccc34)n2)n1 [ARI-031, (1H-indol-3-yl)(4-(3-methyl-1,2,4-oxadiazol-5-yl)thiazol-2-yl)methanone]
PK improvement over ARI-001 and ARI-002, in words [1]: confirms the improvement
bioavailability [2]: 6.3%
IV PK profile compared to ARI-001, ARI-002, and ARI-004, in words ([2]; IV): improved IV PK profiles
% of Hepatisc Blood Flow [2]: 103%

Cc1nc(-c2csc(C(=O)c3c[nH]c4ccccc34)n2)no1 [ARI-030, (1H-indol-3-yl)(4-(5-methyl-1,2,4-oxadiazol-3-yl)thiazol-2-yl)methanone]
TGI (tumor growth inhibition) ([3]; Study 3, LL/2, 40 mpk i.p. QD, D28): 8.4% D28
PK improvement over ARI-001 and ARI-002, in words [1]: confirms the improvement
TGI (tumor growth inhibition) [4, 9]: −0.8% D28
bioavailability [2]: 0.9%
IV PK profile compared to ARI-001, ARI-002, and ARI-004, in words ([2]; IV): improved IV PK profiles
% of Hepatisc Blood Flow [2]: 28%
inhibition in vivo at 40 mg/kg [5, 10]: 21.9%
TGI (tumor growth inhibition) [6, 11]: 23.5% D60

COC(=O)c1csc(C(=O)c2c[nH]c3ccccc23)n1 [ARI-001, ITE]
TGI (tumor growth inhibition) ([3]; Study 1, LL/2, 160 mpk, D28): 65.1% D28
TGI (tumor growth inhibition) ([4]; Study 1, A20, 160 mpk, D26): 54.5% D26
inhibition in vivo at 160 mg/kg [7]: 75.1%
bioavailability [2]: 0.4%
% of Hepatisc Blood Flow [2]: 289%
inhibition in vivo at 160 mg/kg ([5]; Mus musculus, EMT6, 648 h, Study 1, EMT-6, 160 mpk, D27, read-out: TGI (tumor growth inhibition)): 53%
TGI (tumor growth inhibition) ([6]; Study 1, Pan02, 160 mpk, D28): 74.2% D28

CCC(=O)c1csc(C(=O)c2c[nH]c3ccc(F)cc23)n1 [ARI-087, 1-(2-(5-fluoro-1H-indole-3-carbonyl)thiazol-4-yl)propan-1-one]
TGI (tumor growth inhibition) ([3]; Study 3, LL/2, 40 mpk i.p. QD, D38): 23.3% D38
tumor inhibitory activity compared to ARI-002, in words ([3]; Study 3, lung model, 40 mpk): better tumor inhibitory activity than parent compound ARI-002
TGI (tumor growth inhibition) [4, 9]: 20.9% D28
tumor inhibitory activity compared to ARI-002, in words ([4]; Study 3, lymphoma model, 40 mpk): better tumor inhibitory activity than parent compound ARI-002
bioavailability [2]: 19.7%
IV AUCinf, % of that of ARI-002 ([2]; IV): 45%
plasma clearance, times higher than ARI-002 ([2]; IV): 3.2 times
% of Hepatisc Blood Flow [2]: 84%
PO AUCinf, % of that of ARI-002 ([2]; PO): 81%
absolute oral bioavailability, times higher than ARI-002 ([2]; PO): 1.8 times
anti-tumor potency, in words ([5]; EMT-6 model, 40 mpk): better tumor inhibitory activity than parent compound ARI-002
tumor growth and survival, in words ([5]; EMT-6 model, 40 mpk): delayed tumor growth and prolonged survival
complete tumor regression (CR) ([5]; EMT-6 model, Study 4, by day 46): did not result in a CR until day 81
complete tumor regression (CR) ([5]; EMT-6 model, Study 5, by day 51): did not have any animal in CR
animals with tumor volumes<1000 mm^3 ([5]; EMT-6 model, day 27, 40 mpk): 6 out of 10
inhibition in vivo at 40 mg/kg ([5]; Mus musculus, 624 h, Study 6, EMT-6, 40 mpk i.p. QD, D26, read-out: TGI (tumor growth inhibition)): 52.8%
inhibition in vivo at 40 mg/kg [5, 10]: 56.7%
inhibition in vivo at 40 mg/kg ([5]; Mus musculus, 672 h, Study 4, EMT-6, 40 mpk i.p. QD, D28, read-out: TGI (tumor growth inhibition)): 29.5%
inhibition in vivo at 40 mg/kg ([5]; Mus musculus, 720 h, Study 5, EMT-6, 40 mpk i.p. QD, D30, read-out: TGI (tumor growth inhibition)): 42.2%
primary metabolites of the indole ring identified [8]: fewer primary metabolites of the indole ring
TGI (tumor growth inhibition) [6, 11]: 64.9% D60
